# Structures can show the parent of a compound that is named as a salt.
# Legend:
# [1] = Pharmacokinetic studies, oral dose, male (fasted) cynomolgus monkeys; type: in vivo
# Method: Pharmacokinetic studies were conducted in male (fasted) cynomolgus monkeys (n=2 for each formulation). An oral pill was prepared to compare Form 1 and Form 2. […] The dosage was administered as an oral dose containing 2, 5, or 10 mg/kg, respectively. Serial blood samples were collected at the 0, 0.25, 0.5, 1, 2, 4, 7, and 24-hour time points via the femoral vein by syringe and transferred into K3EDTA vacutainers. Blood samples were then centrifuged, the plasma harvested and stored at −20° C. or −80° C. until analysis.
# The appropriate amount of either Form 1 or Form 2 was transferred into a mortar. The corresponding amount of the excipient blend was then geometrically added to the mortar and mixed thoroughly with the respective Form 1 or Form 2 using a pestle. The mixture was transferred to a container, and blended on a Turbula mixer for 5 minutes to provide a blend containing the respective Form 1 or Form 2 mixed with the excipients.
# The tablets were compressed to achieve 100 mg tablet weight, with target tablet hardness between 4 and 9 kp at the press speed of 15 tablets per minute.
# To prepare a representative batch size of 1 L of 0.5% (w/v) methylcellulose (Methocel® A4M) solution, approximately 0.4 L of deionized water was heated to 80-90° C. after which 5 grams of methylcellulose (Methocel® A4M) was added and mixed thoroughly until the particles were thoroughly wetted. The mixture was then removed from heat. Cold water (0.6 L) was then added, while continuously stirring in the ice bath, until all the methylcellulose particles were dissolved.
# The solid powder was triturated (lumps broken) using a pestle. Two mL of 0.5% w/v methylcellulose (Methocel® A4M) was added to the powder drop-wise. The vehicle and free acid were well mixed to form a smooth paste. The remaining of the vehicle was added in small aliquots while mixing until a uniform suspension was obtained. […] Twenty-two microliter of Polysorbate 80 (Tween® 80) was added to the suspension.
# The solid powder was triturated (lumps broken) using a pestle. Small amount of 0.5% w/v methylcellulose (Methocel® A4M) was added to the powder to form a smooth paste. The remaining of the vehicle was added in small aliquots while mixing until a uniform suspension was obtained. The suspension was transferred to a container and made up to final volume of 50 mL.
# [2] = Hygroscopicity by dynamic vapor sorption; type: physicochemical; conditions: at 90% RH/25° C.
# Method: Hygroscopicity was measured using a dynamic vapor sorption instrument manufactured by TA Instruments or Surface Measurement Systems. A sample of each Form was exposed to incremental RH levels until either a weight equilibrium (seen as a plateau) of ≤0.001% weight change in 5 minutes was met, or a maximum time of 120 minutes at each RH level. After the shorter of 0.001% weight equilibrium in 5 minutes or 120 minutes, the sample was then exposed to the next RH level. There was an initial drying period where weight may have been lost with Form 1, no drying was utilized for Form 2. The process starts at 10% RH with RH increased to 20% RH and then a 10% RH increase after each interval (0.001% in 5 minutes equilibrium or 120 min, whichever occurred first). At 90% RH, the RH was reversed back to 10% RH using the same equilibration criteria. The hygroscopicity is measured as a function of the percent weight gain measured at 90% RH.
# [3] = Thermodynamic stability of crystalline forms versus water activity; type: physicochemical; conditions: ambient temperature; 0.2 corresponds to 20% RH
# [4] = Hygroscopicity observed during salt evaluation (mainly through visualization); type: physicochemical
# Excerpt: Determining whether a solid would form was just one factor in this evaluation. […] See, e.g., C. Saal, A. Becker, Euro.
# [5] = Thermodynamic solubility (24 hours agitation at RT, filtration, nitrogen detector); type: physicochemical; conditions: for Solubility pH 1.2: pH 1.2, 24 hours at RT; for Solubility pH 6.5: pH 6.5, 24 hours at RT; for Solubility pH 7.4: pH 7.4, 24 hours at RT
# Method: Four hundred fifty microliters (450 μL) of the desired medium was added to the filter and agitated for 24 hours at RT. After 24 hours, the sample was filtered and the filtrates were injected into a nitrogen detector for quantification.
# pH 1.2: Weigh out 1.0 g of NaCl and transfer to a beaker. Add about 450 mL HPLC-grade water to dissolve the NaCl. […] Transfer the solution to a 500 mL volumetric flask and bring to 500 mL with HPLC-grade water.
# pH 6.5: Titrate about 250 mL of 50 mM NaPO4 dibasic with about 500 mL of 50 mM NaPO4 monobasic to pH 6.5. The ending total volume is the volume at the point the solution has a pH 6.5 is reached when adding 50 mM NaPO4 monobasic to the 50 mM NaPO4 dibasic.
# pH 7.4: Titrate about 200 mL of 50 mM NaPO4 dibasic with about 50 mL of 50 mM NaPO4 monbasic to pH 7.4. The ending total volume is the volume at the point the solution has a pH 7.4 is reached when adding 50 mM NaPO4 monobasic to the 50 mM NaPO4 dibasic.
# [6] = Immediate Release Tablet, 2 mg/kg
compound,measurement,setting,value
COc1cc(C(=O)N2CCC3(CC2)CC(=O)c2c(cnn2C(C)C)C3)cc(-c2ccc(C(=O)O)cc2)n1 [Form 2],AUC/Dose,[1]; [6],5650 ng*h/ml/mpk
same,hygroscopicity (percent weight gain),[2],about 1%
same,water activity at which the form is thermodynamically stable,[3],> 0.2
[Ca] [Calcium],hygroscopicity of the isolated solid (observation),[4],too hygroscopic
same,Solubility pH 1.2,[5],13.5 μM
same,Solubility pH 6.5,[5],1500.0 μM
same,Solubility pH 7.4,[5],5050.0 μM
O=S(=O)(O)O [sulfuric acid],hygroscopicity of the isolated solid (observation),[4],very hygroscopic
[K+] [potassium],hygroscopicity of the isolated solid (observation),[4],too hygroscopic
sodium,hygroscopicity of the isolated solid (observation),[4],too hygroscopic
"COc1cc(C(=O)N2CCC3(CC2)CC(=O)c2c(cnn2C(C)C)C3)cc(-c2ccc(C(=O)O)cc2)n1 [Form 1, 4-(4-(1-isopropyl-7-oxo-1,4,6,7-tetrahydrospiro[indazole-5,4′-piperidine]-1′-carbonyl)-6-methoxypyridin-2-yl)benzoic acid anhydrous tris salt]",AUC/Dose,[1]; [6],5750 ng*h/ml/mpk
same,AUC/Dose,"[1]; Suspension, 5 mg/kg",7240 ng*h/ml/mpk
same,hygroscopicity (percent weight gain),[2],about 1%
same,Solubility pH 1.2,[5]; listed as Tris (Form 1),1320.0 μM
same,Solubility pH 6.5,[5]; listed as Tris (Form 1),3980.0 μM
same,Solubility pH 7.4,[5]; listed as Tris (Form 1),4770.0 μM
same,water activity at which the form is thermodynamically stable,[3],< 0.2
"COc1cc(C(=O)N2CCC3(CC2)CC(=O)c2c(cnn2C(C)C)C3)cc(-c2ccc(C(=O)O)cc2)n1 [Compound 1, 4-(4-(1-isopropyl-7-oxo-1,4,6,7-tetrahydrospiro[indazole-5,4′-piperidine]-1′-carbonyl)-6-methoxypyridin-2-yl)benzoic acid]",AUC/Dose,"[1]; Suspension, 10 mg/kg",4120 ng*h/ml/mpk
same,Solubility pH 1.2,[5]; listed as Free acid - batch A,"11.8 (avg, n = 2, μM"
same,Solubility pH 1.2,[5]; listed as Free acid - batch B,"13.0 (avg, n = 2, μM"
same,Solubility pH 1.2,[5]; listed as Free acid - batch C,<0.5 μM
same,Solubility pH 6.5,[5]; listed as Free acid - batch A,"44.7 (avg, n = 2, μM"
same,Solubility pH 6.5,[5]; listed as Free acid - batch B,"222.0 (avg, n = 2, μM"
same,Solubility pH 6.5,[5]; listed as Free acid - batch C,19.6 μM
same,Solubility pH 7.4,[5]; listed as Free acid - batch A,"255.0 (avg, n = 2, μM"
same,Solubility pH 7.4,[5]; listed as Free acid - batch B,"1700.0 (avg, n = 2, μM"
same,Solubility pH 7.4,[5]; listed as Free acid - batch C,194.0 μM

# — patent publication US11325909B2, “Crystalline 2-amino-2-(hydroxymethyl)propane-1,3-diol salt of 4-(4-(1-isopropyl-7-OXO-1,4,6,7-tetrahydrospiro[indazole-5,4′-piperidine]-1′-carbonyl)-6-methoxypryridin-2-YL)benzoic acid” (Pfizer Inc., priority 2017, dated 2022)
